Measurements reported in patent US20260201008A1, “SECRETIN-DERIVED GLP1R SELECTIVE AGONISTS” (GUBRA A/S, priority 2023, published 2026).
Read-outs that look alike come from different tables or passages of the source. Numbered stars: 1 amine (or outer) side, 2 acyl side, 3 side chain; on linkers, the order of the positions; unused ones are H or OH. Square brackets hold non-standard residues; d marks the D form. Side chains are listed from the residue outwards. Peptide text beside a SMILES is read from it. * marks the point of attachment. C20 diacid = O=C(O)CCCCCCCCCCCCCCCCCCC(=O)*; γGlu = O=C(O)[C@H](CCC(=O)[*:2])N[*:1]; AEEA = NCCOCCOCC(=O)O; Aib = CC(C)(N)C(=O)O

What was measured:
[1] = Turbidity of crude library peptides (absorbance at 600 nm); assay type: physicochemical; details: Physical stability of peptides
Outline: (§1)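 Turbidity is the absorbance at 600 nm, taken before heating. Fibril signal is the mean ThT emission at 480 nm (450 nm excitation), read every 10 min over 72 h at 40° C with 700 rpm shaking between reads. Peptides at 267 μM, pH 4.0 acetate or pH 7.0 phosphate buffer (50 mM), 4 μM ThT final.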

[2] = Fibril formation of crude library peptides (Thioflavin T); assay type: physicochemical; parameters: key: average ThT fluorescence emission at 480 nm (ex 450 nm), raw units; details: Physical stability of peptides
Outline: as §1

GLP1R = GLP1R (Homo sapiens, UniProt P43220); assay: hGLP1R potency, cAMP accumulation in CHO-K1 cells stably overexpressing hGLP1R; assay type: cell-based; parameters: host or cells: CHO-K1; details: for Selectivity: SCTR EC50/GLP1R EC50 ratio; for EC50: cAMP accumulation; for SCTR EC50/GLP1R EC50 ratio: cAMP accumulation in CHO-K1 cells
Outline: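 EC50 derives from variable-slope nonlinear regression of cAMP HTRF signal, with purified peptides tested as 11 three-fold dilutions in duplicate. Assay: hGLP1R-overexpressing CHO-K1 cells, 0.5 mM IBMX, 0.05% casein in DPBS, 30 min room-temperature stimulation, GLP-1(7-36) as reference agonist.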

SCTR = SCTR (Homo sapiens, UniProt P47872); assay: hSCTR potency, cAMP accumulation in CHO-K1 cells stably overexpressing hSCTR; assay type: cell-based; parameters: alternatively Euroscreen ES-712-AF; FAST-0161L; host or cells: CHO-K1; details: cAMP accumulation
Outline: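 EC50 derived from variable-slope nonlinear regression on 11-point, 3-fold series run in duplicate (crude peptides: 5 points, 10-fold, n=1). Compound stimulation lasted 30 min at room temperature in casein/IBMX-containing DPBS (0.05%, 0.5 mM), 2000 cells/well; cAMP detected by time-resolved FRET after one hour.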

[3] = CHO-K1 cells overexpressing hGLP1R, read-out: pEC50 hGLPR1 (converted)
[4] = CHO-K1 cells overexpressing hSCTR, read-out: pEC50 hSCTR (converted)
[5] = CHO-K1 cells overexpressing hGLP1R, read-out: hGLP1R pEC50 (converted)
[6] = selectivity for hGLP1R over hSCTR
[7] = CHO-K1 cells overexpressing hSCTR, read-out: hSCTR pEC50 (converted)

Chain of GLP1R (P43220 24-463): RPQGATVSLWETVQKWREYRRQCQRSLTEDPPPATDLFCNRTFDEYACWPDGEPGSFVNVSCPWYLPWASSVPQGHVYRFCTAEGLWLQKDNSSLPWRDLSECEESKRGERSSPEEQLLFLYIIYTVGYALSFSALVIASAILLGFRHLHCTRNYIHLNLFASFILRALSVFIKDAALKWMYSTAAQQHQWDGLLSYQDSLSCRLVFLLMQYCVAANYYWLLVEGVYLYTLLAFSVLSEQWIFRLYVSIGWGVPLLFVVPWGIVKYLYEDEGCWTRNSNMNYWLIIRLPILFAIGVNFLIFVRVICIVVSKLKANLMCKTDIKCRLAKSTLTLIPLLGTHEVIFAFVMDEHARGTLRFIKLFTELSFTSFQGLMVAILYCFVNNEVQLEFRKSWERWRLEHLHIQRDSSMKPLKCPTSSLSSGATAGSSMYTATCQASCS
Chain of SCTR (P47872 23-440): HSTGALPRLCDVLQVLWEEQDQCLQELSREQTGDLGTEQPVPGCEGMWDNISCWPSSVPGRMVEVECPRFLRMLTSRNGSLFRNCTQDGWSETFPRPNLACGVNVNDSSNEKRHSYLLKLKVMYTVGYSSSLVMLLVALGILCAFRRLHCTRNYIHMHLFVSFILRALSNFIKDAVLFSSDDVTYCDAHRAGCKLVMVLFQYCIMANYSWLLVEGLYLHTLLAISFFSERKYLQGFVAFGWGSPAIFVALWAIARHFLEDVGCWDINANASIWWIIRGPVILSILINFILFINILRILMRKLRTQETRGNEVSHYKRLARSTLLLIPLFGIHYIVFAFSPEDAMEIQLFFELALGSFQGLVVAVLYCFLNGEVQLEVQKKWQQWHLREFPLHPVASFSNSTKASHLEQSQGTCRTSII

| Structure (SMILES) | Turbidity (pH 7) [1] | Fibril formation [2] | Selectivity (GLP1R) | EC50 (GLP1R; [3]) [nM] | EC50 (SCTR; [4]) [nM] | EC50 (GLP1R; [5]) [nM] | SCTR EC50/GLP1R EC50 ratio (GLP1R; [6]) | EC50 (SCTR; [7]) [nM] | EC50 (GLP1R; CHO-K1 cells stably overexpressing hGLP1R, read-out: hGLP1R potency (pEC50) (converted)) [nM] | SCTR EC50/GLP1R EC50 ratio (GLP1R; selectivity ratio, hSCTR vs hGLP1R) | EC50 (SCTR; CHO-K1 cells stably overexpressing hSCTR, read-out: hSCTR potency (pEC50) (converted)) [nM] |
| --- | --- | --- | --- | --- | --- | --- | --- | --- | --- | --- | --- |
| CC(C)C[C@H](NC(=O)[C@H](Cc1ccccc1)NC(=O)[C@H](CCCNC(=N)N)NC(=O)[C@H](CCC(N)=O)NC(=O)[C@H](C)NC(=O)[C@H](C)NC(=O)[C@H](C)NC(=O)[C@@H](NC(=O)[C@H](CCC(=O)O)NC(=O)[C@H](CCCCNC(=O)COCCOCCNC(=O)COCCOCCNC(=O)CC[C@H](NC(=O)CCCCCCCCCCCCCCCCCCC(=O)O)C(=O)O)NC(=O)[C@H](CC(C)C)NC(=O)[C@H](Cc1ccccc1)NC(=O)[C@H](CO)NC(=O)[C@@H](NC(=O)[C@H](CC(=O)O)NC(=O)[C@H](CO)NC(=O)[C@@H](NC(=O)[C@H](Cc1ccccc1)NC(=O)[C@@H](NC(=O)CNC(=O)[C@H](CCC(=O)O)NC(=O)C(C)(C)NC(=O)[C@@H](N)Cc1c[nH]cn1)[C@@H](C)O)[C@@H](C)O)C(C)C)[C@@H](C)O)C(=O)N[C@@H](CCC(=O)O)C(=O)N[C@@H](Cc1c[nH]cn1)C(=O)N[C@@H](CC(C)C)C(=O)N[C@H](C(N)=O)C(C)C [compound 44] (H-H[Aib]EGTFTSDVSFLK([AEEA-AEEA-γGlu-C20 diacid])ETAAAQRFLEHLV-NH2) | 0.08 | 10742 | 114525 | 0.0316 | 3980 |  |  |  |  |  |  |
| CC(C)C[C@H](NC(=O)[C@H](Cc1ccccc1)NC(=O)[C@H](CCCNC(=N)N)NC(=O)[C@H](CCC(N)=O)NC(=O)[C@H](CCC(N)=O)NC(=O)[C@H](C)NC(=O)[C@H](C)NC(=O)[C@H](CCC(=O)O)NC(=O)[C@H](CCC(=O)O)NC(=O)[C@H](CCCCNC(=O)COCCOCCNC(=O)COCCOCCNC(=O)CC[C@H](NC(=O)CCCCCCCCCCCCCCCCCCC(=O)O)C(=O)O)NC(=O)[C@H](CC(C)C)NC(=O)[C@@H](NC(=O)[C@H](CO)NC(=O)[C@@H](NC(=O)[C@H](CC(=O)O)NC(=O)[C@H](CO)NC(=O)[C@@H](NC(=O)[C@H](Cc1ccccc1)NC(=O)[C@@H](NC(=O)CNC(=O)[C@H](CCC(=O)O)NC(=O)C(C)(C)NC(=O)[C@@H](N)Cc1c[nH]cn1)[C@@H](C)O)[C@@H](C)O)C(C)C)C(C)C)C(=O)N[C@@H](CCC(=O)O)C(=O)N[C@@H](Cc1c[nH]cn1)C(=O)N[C@@H](CC(C)C)C(=O)N[C@H](C(N)=O)C(C)C [compound 90] (H-H[Aib]EGTFTSDVSVLK([AEEA-AEEA-γGlu-C20 diacid])EEAAQQRFLEHLV-NH2) | 0.09 | 5668 |  |  |  | 0.0316 | 51322 | 1580 |  |  |  |
| CC(C)C[C@H](NC(=O)[C@H](Cc1ccccc1)NC(=O)[C@H](CCCNC(=N)N)NC(=O)[C@H](CCC(N)=O)NC(=O)[C@H](CC(C)C)NC(=O)C(C)(C)NC(=O)[C@H](C)NC(=O)[C@H](CCC(=O)O)NC(=O)[C@H](CCC(=O)O)NC(=O)[C@H](CCCCNC(=O)COCCOCCNC(=O)COCCOCCNC(=O)CC[C@H](NC(=O)CCCCCCCCCCCCCCCCCCC(=O)O)C(=O)O)NC(=O)[C@H](CC(C)C)NC(=O)[C@H](Cc1ccc(O)cc1)NC(=O)[C@H](CO)NC(=O)C(C)(C)NC(=O)[C@H](CC(=O)O)NC(=O)[C@H](CO)NC(=O)[C@@H](NC(=O)[C@H](Cc1ccccc1)NC(=O)[C@@H](NC(=O)CNC(=O)[C@H](CCC(=O)O)NC(=O)C(C)(C)NC(=O)[C@@H](N)Cc1c[nH]cn1)[C@@H](C)O)[C@@H](C)O)C(=O)N[C@@H](CCC(=O)O)C(=O)N[C@@H](Cc1c[nH]cn1)C(=O)N[C@@H](CC(C)C)C(=O)N[C@H](C(N)=O)C(C)C [compound 103] (H-H[Aib]EGTFTSD[Aib]SYLK([AEEA-AEEA-γGlu-C20 diacid])EEA[Aib]LQRFLEHLV-NH2) | 0.08 | 3646 |  |  |  | 0.00794 | 1181272 | 10000 |  |  |  |
| CC(C)C[C@H](NC(=O)[C@H](Cc1ccccc1)NC(=O)[C@H](CCCNC(=N)N)NC(=O)[C@H](CCC(N)=O)NC(=O)[C@H](CC(C)C)NC(=O)C(C)(C)NC(=O)[C@H](C)NC(=O)[C@H](CCC(=O)O)NC(=O)[C@H](CCC(=O)O)NC(=O)[C@H](CCCCNC(=O)COCCOCCNC(=O)COCCOCCNC(=O)CC[C@H](NC(=O)CCCCCCCCCCCCCCCCCCC(=O)O)C(=O)O)NC(=O)[C@H](CC(C)C)NC(=O)[C@H](CC(=O)O)NC(=O)[C@H](CO)NC(=O)[C@@H](NC(=O)[C@H](CC(=O)O)NC(=O)[C@H](CO)NC(=O)[C@@H](NC(=O)[C@H](Cc1ccccc1)NC(=O)[C@@H](NC(=O)CNC(=O)[C@H](CCC(=O)O)NC(=O)C(C)(C)NC(=O)[C@@H](N)Cc1c[nH]cn1)[C@@H](C)O)[C@@H](C)O)C(C)C)C(=O)N[C@@H](CCC(=O)O)C(=O)N[C@@H](Cc1c[nH]cn1)C(=O)N[C@@H](CC(C)C)C(=O)N[C@H](C(N)=O)C(C)C [compound 153] (H-H[Aib]EGTFTSDVSDLK([AEEA-AEEA-γGlu-C20 diacid])EEA[Aib]LQRFLEHLV-NH2) | 0.08 | 3897 |  |  |  | 0.02 | 16095 | 316 |  |  |  |
| CC(C)C[C@H](NC(=O)[C@H](Cc1ccccc1)NC(=O)[C@H](CCCNC(=N)N)NC(=O)[C@H](CCC(N)=O)NC(=O)C(C)(C)NC(=O)[C@H](C)NC(=O)[C@H](C)NC(=O)[C@H](Cc1ccccc1)NC(=O)[C@H](CCC(=O)O)NC(=O)[C@H](CCCCNC(=O)COCCOCCNC(=O)COCCOCCNC(=O)CC[C@H](NC(=O)CCCCCCCCCCCCCCCCCCC(=O)O)C(=O)O)NC(=O)[C@H](CC(C)C)NC(=O)[C@H](Cc1ccccc1)NC(=O)[C@H](CO)NC(=O)[C@@H](NC(=O)[C@H](CC(=O)O)NC(=O)[C@H](CO)NC(=O)[C@@H](NC(=O)[C@H](Cc1ccccc1)NC(=O)[C@@H](NC(=O)CNC(=O)[C@H](CCC(=O)O)NC(=O)C(C)(C)NC(=O)[C@@H](N)Cc1c[nH]cn1)[C@@H](C)O)[C@@H](C)O)C(C)C)C(=O)N[C@@H](CCC(=O)O)C(=O)N[C@@H](Cc1c[nH]cn1)C(=O)N[C@@H](CC(C)C)C(=O)N[C@H](C(N)=O)C(C)C [compound 27] (H-H[Aib]EGTFTSDVSFLK([AEEA-AEEA-γGlu-C20 diacid])EFAA[Aib]QRFLEHLV-NH2) | 0.09 | 16757 | 33159 | 0.1 | 3160 |  |  |  |  |  |  |
| CC[C@H](C)[C@H](NC(=O)[C@H](Cc1ccccc1)NC(=O)[C@H](CCCNC(=N)N)NC(=O)[C@H](CCC(N)=O)NC(=O)[C@H](CC(C)C)NC(=O)[C@H](C)NC(=O)[C@H](C)NC(=O)CNC(=O)[C@H](CCC(=O)O)NC(=O)[C@H](CC(C)C)NC(=O)[C@H](CC(C)C)NC(=O)[C@@H](NC(=O)[C@H](CO)NC(=O)[C@H](Cc1ccc(O)cc1)NC(=O)[C@H](CC(=O)O)NC(=O)[C@H](CO)NC(=O)[C@@H](NC(=O)[C@H](Cc1ccccc1)NC(=O)[C@@H](NC(=O)CNC(=O)[C@H](CCC(=O)O)NC(=O)C(C)(C)NC(=O)[C@@H](N)Cc1c[nH]cn1)[C@@H](C)O)[C@@H](C)O)C(C)C)C(=O)N[C@@H](CCC(N)=O)C(=O)N[C@@H](Cc1c[nH]c2ccccc12)C(=O)N[C@@H](CC(C)C)C(=O)N[C@H](C(N)=O)C(C)C [compound 198] (H-H[Aib]EGTFTSDYSVLLEGAALQRFIQWLV-NH2) | 0.33 | 257659 |  |  |  |  |  |  | 0.0251 | 185 | 5.01 |
| CC(C)C[C@H](NC(=O)[C@H](Cc1ccccc1)NC(=O)[C@H](CCCNC(=N)N)NC(=O)[C@H](CCC(N)=O)NC(=O)[C@H](CCC(=O)O)NC(=O)[C@H](C)NC(=O)[C@H](C)NC(=O)[C@H](Cc1ccccc1)NC(=O)[C@H](CCC(=O)O)NC(=O)[C@H](CCCCNC(=O)COCCOCCNC(=O)COCCOCCNC(=O)CC[C@H](NC(=O)CCCCCCCCCCCCCCCCCCC(=O)O)C(=O)O)NC(=O)[C@H](CC(C)C)NC(=O)[C@H](CCC(=O)O)NC(=O)[C@H](CO)NC(=O)[C@@H](NC(=O)[C@H](CC(=O)O)NC(=O)[C@H](CO)NC(=O)[C@@H](NC(=O)[C@H](Cc1ccccc1)NC(=O)[C@@H](NC(=O)CNC(=O)[C@H](CCC(=O)O)NC(=O)C(C)(C)NC(=O)[C@@H](N)Cc1c[nH]cn1)[C@@H](C)O)[C@@H](C)O)C(C)C)C(=O)N[C@@H](CCC(=O)O)C(=O)N[C@@H](Cc1c[nH]cn1)C(=O)N[C@@H](CC(C)C)C(=O)N[C@H](C(N)=O)C(C)C [compound 31] (H-H[Aib]EGTFTSDVSELK([AEEA-AEEA-γGlu-C20 diacid])EFAAEQRFLEHLV-NH2) | 0.08 | 10417 | 144477 | 0.0398 | 6310 |  |  |  |  |  |  |
